Data on 6 compounds can be found in patent US20250250265A1, “BENZOTHIAZOLE-PHENYLSULFONYL-PIPERIDINE ANALOGS AS ACTIVATORS OF NACYLPHOSPHATIDYLETHANOLAMINE HYDROLYZING PHOSPHOLIPASE D” (priority 2022, published 2025).

One may read the EC50 as the concentration that produces a half-maximal response. The Emax is the size of the effect at its maximum, as opposed to the concentration needed.

The first data set deals with T1, recombinant mouse NAPE-PLD (Mus musculus, UniProt Q8BH82).
T1 construct: hexahistidine (His6) (C); made in house; host or cells: E. coli
T1 sequence (Q8BH82 1-396): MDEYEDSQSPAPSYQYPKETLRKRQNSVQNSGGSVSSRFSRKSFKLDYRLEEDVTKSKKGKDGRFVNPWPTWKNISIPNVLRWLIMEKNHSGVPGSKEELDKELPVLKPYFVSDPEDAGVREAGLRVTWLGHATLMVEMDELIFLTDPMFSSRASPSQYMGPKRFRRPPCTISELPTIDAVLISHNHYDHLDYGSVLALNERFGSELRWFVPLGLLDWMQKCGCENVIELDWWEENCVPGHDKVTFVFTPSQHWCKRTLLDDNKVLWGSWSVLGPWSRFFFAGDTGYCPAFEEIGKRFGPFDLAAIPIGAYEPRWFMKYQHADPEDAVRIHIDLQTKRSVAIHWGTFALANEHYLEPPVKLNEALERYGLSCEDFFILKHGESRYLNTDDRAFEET
Nature of the data set: In vitro fluorescence NAPE-PLD activity assay (HTS/CRC) with recombinant mouse NAPE-PLD and PED-A1. It counts as biochemical. To be noted: Table 3; read-out: In vitro EC50. Here is the method:
Using the fluorogenic NAPE substrate, PED-A1, and recombinant mouse NAPE-PLD (rNAPE-PLD), an in vitro high-throughput (HTS) assay was conducted to screen ˜40,000 compounds for their ability to modulate NAPE-PLD activity. The HTS assay enabled the detection of both NAPE-PLD activators and inhibitors. […] Initial structure-activity response studies with the top hits identified benzothiazole phenylsulfonyl-piperidine carboxamide analogs (BT-PSP analogs) as lead compounds for NAPE-PLD activators (Table 1). The lead BT-PSP analog identified, VU534, induces 50% of its activation effect on NAPE-PLD at 270 nM (AC50 270 nM), and induces a maximal effect of 195% of basal NAPE-PLD activity (Table 1).
In vitro fluorescence NAPE-PLD activity assays using recombinant NAPE-PLD and either PED-A1 or flame-NAPE as fluorogenic substrate were performed as previously described except with small modifications as noted below. See Aggarwal et al., J. Biol. Chem. 295(21): 7289-7300 (2020); Zarrow et al., J. Lipid Res. 63(1): 100156 (2022).
For the HTS assays, test compounds were incubated with recombinant enzyme for 1 h prior to adding PED-A1 (final 0.4 μM) mixed with N-palmitoyl-dioleoyl-PE (final 3.6 μM) to adjust for the high sensitivity of the Panoptic instrument (WaveFront Biosciences). Assays used black-wall, clear-bottom, non-sterile, and non-treated 384-well plates (Greiner Bio-One 781906). The assay was read in kinetic fluorescence mode on the Panoptic instrument for 4 min and the slope of the signal from 30-100 s was used for analysis. A total of 39,328 compounds from the Vanderbilt Discovery Collection were tested, each at 10 μM. The tested compounds were chosen to represent a structurally diverse selection from the full library. Each 384-well plate included 320 test compound wells and 64 control wells. Unlike previous pilot screening assays, bithionol (10 μM final) was used in place of lithocholic acid (100 μM final) as the inhibitor control. Before performing high-throughput screening, a checkerboard assay was performed to validate the assay parameters. This yielded a Z′ score of 0.676. Z′ scores were also calculated for each plate during screening, and plates with scores <0.5 were re-run. The average Z′ across all screening plates was 0.52, and the total hit rate was 3.6%. B-scores were calculated from the initial slopes across each plate using WaveGuide software (WaveFront Biosiences). Modulator hits were defined as compounds with absolute B-scores of 3 or higher. The number of compounds in various B-score ranges were as follows: […], 12 compounds; −10 to −5, 221 compounds; −5 to −3, 770 compounds; −3 to 3, 37924 compounds; 3 to 4, 314 compounds; 4 to 6, 70 compounds; 6 to 10, 15 compounds. Activator hits with B-scores of >3 were selected for the replication assay and a selection of analogs of the activators.
Concentration response curve (CRC) experiments used the same assay conditions as the HTS assay, except that graded concentrations of each test compound were used, with total amount of vehicle (DMSO) kept constant. CRC experiments with purified recombinant mouse NAPE-PLD were performed on two separate days, with values from each day normalized to vehicle only controls on same plate, and then all normalized values from both days averaged together. CRC experiments with human NAPE-PLD represent value from only a single day, due to limited amounts of this recombinant enzyme.
In the case of `O=C(Nc1nc2ccccc2s1)C1CCN(S(=O)(=O)c2cccnc2)CC1` [VU203], the concentration giving a half-maximal response (EC50) worked out at 3400 nM.
As for `Cc1cccc2sc(NC(=O)C3CCN(S(=O)(=O)c4ccc(F)c(Cl)c4)CC3)nc12` [VU209], the 50% effective concentration (EC50) is 4700 nM.
Consider `Cc1cccc2sc(NC(=O)C3CCN(S(=O)(=O)c4cnn(C)c4)CC3)nc12` [VU210], for which the EC50 was 1500 nM.
Same read-out and setting: the figure for `Cc1cccc2sc(NC(=O)C3CCN(S(=O)(=O)c4cccnc4)CC3)nc12` [VU211] is roughly 940 nM; for `Cn1cc(S(=O)(=O)N2CCC(C(=O)Nc3nc4ccccc4s3)CC2)cn1` [VU227] it is roughly 2900 nM.

Still in this data set, the particulars now being: Table 3; read-out: In vitro Emax (100% activity is baseline activity of vehicle only).
Regarding `O=C(Nc1nc2ccccc2s1)C1CCN(S(=O)(=O)c2cccnc2)CC1` [VU203], the maximal response (Emax) is 183%.
Same read-out and setting: to `Cc1cccc2sc(NC(=O)C3CCN(S(=O)(=O)c4ccc(F)c(Cl)c4)CC3)nc12` [VU209] belongs 179%; to `Cc1cccc2sc(NC(=O)C3CCN(S(=O)(=O)c4cnn(C)c4)CC3)nc12` [VU210], 239%.
The same measure, in the same setting: to `Cc1cccc2sc(NC(=O)C3CCN(S(=O)(=O)c4cccnc4)CC3)nc12` [VU211] belongs roughly 176%; to `Cn1cc(S(=O)(=O)N2CCC(C(=O)Nc3nc4ccccc4s3)CC2)cn1` [VU227], roughly 150%.

The same data set, now with this note: Table 4; maximal efficacy as fold increase in NAPE-PLD activity versus vehicle only.
For the compound `O=C(Nc1nc2ccccc2s1)C1CCN(S(=O)(=O)c2cccnc2)CC1` [VU203], the “Emax (95% Cl)” value is reported as 1.8 (1.7-2.0) fold.
On the same count and under the same terms, the figure for `Cc1cccc2sc(NC(=O)C3CCN(S(=O)(=O)c4ccc(F)c(Cl)c4)CC3)nc12` [VU209] is 1.9 (1.8-2.1) fold; for `Cc1cccc2sc(NC(=O)C3CCN(S(=O)(=O)c4cnn(C)c4)CC3)nc12` [VU210] it is 2.4 (2.3-2.6) fold; for `Cc1cccc2sc(NC(=O)C3CCN(S(=O)(=O)c4cccnc4)CC3)nc12` [VU211] it is 2.1 (2.0-2.2) fold.
The same measure, in the same setting: to `Cn1cc(S(=O)(=O)N2CCC(C(=O)Nc3nc4ccccc4s3)CC2)cn1` [VU227] belongs 1.7 (1.6-1.9) fold; to `O=C(Nc1nc2ccccc2s1)C1CCN(S(=O)(=O)c2ccc(F)c(Cl)c2)CC1` [VU233], less than 1.2 fold.

In a further data set the target is T2, Fatty Acid Amide Hydrolase (FAAH) (Homo sapiens, UniProt O00519).
T2 construct: purchased Cayman Chemicals
T2 sequence (O00519 1-579): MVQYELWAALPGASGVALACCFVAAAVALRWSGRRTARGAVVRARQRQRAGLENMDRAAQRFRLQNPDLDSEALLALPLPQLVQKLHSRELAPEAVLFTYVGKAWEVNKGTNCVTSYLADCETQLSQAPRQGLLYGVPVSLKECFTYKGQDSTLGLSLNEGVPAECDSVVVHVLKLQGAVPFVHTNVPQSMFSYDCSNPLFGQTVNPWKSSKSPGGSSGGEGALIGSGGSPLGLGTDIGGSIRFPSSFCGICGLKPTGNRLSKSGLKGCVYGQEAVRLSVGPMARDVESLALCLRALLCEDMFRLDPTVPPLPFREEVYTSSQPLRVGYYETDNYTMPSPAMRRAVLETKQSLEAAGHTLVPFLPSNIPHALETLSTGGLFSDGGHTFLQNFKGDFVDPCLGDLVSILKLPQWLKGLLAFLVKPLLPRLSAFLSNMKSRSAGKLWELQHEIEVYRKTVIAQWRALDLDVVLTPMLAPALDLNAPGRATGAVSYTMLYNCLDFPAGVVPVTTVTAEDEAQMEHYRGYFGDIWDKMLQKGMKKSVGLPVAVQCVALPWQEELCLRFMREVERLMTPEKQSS
Description: FAAH activity assay (Cayman Chemicals). It counts as biochemical. Conditions: Table 3; 33 μM. Here is the method:
Concentration response curves were plotted for VU534 for the enzymes fatty acid amide hydrolase (FAAH) and soluble epoxide hydrolase (sEH).
The fluorescence interference assay was performed using the same method as the HTS assay, but with BODIPY-FL C5 (Thermo Fisher Scientific) used in place of PED-A1. sEH and FAAH activity assays were performed according to the manufacturer's specifications (Cayman Chemicals).
`O=C(Nc1nc2ccccc2s1)C1CCN(S(=O)(=O)c2cccnc2)CC1` [VU203]: the “Remaining FAAH Activity (33 μM)” value was found to be 79%.
Same read-out and setting: to `Cc1cccc2sc(NC(=O)C3CCN(S(=O)(=O)c4ccc(F)c(Cl)c4)CC3)nc12` [VU209] belongs 88%.
On the same count and under the same terms, the figure for `Cc1cccc2sc(NC(=O)C3CCN(S(=O)(=O)c4cnn(C)c4)CC3)nc12` [VU210] is 89%.
As to `Cc1cccc2sc(NC(=O)C3CCN(S(=O)(=O)c4cccnc4)CC3)nc12` [VU211], the “Remaining FAAH Activity (33 μM)” value was 86%.
The same measure, in the same setting: the figure for `Cn1cc(S(=O)(=O)N2CCC(C(=O)Nc3nc4ccccc4s3)CC2)cn1` [VU227] is 97%; for `O=C(Nc1nc2ccccc2s1)C1CCN(S(=O)(=O)c2ccc(F)c(Cl)c2)CC1` [VU233] it is 90%.

The same data set, now with this note: graded concentrations up to 33 μM.
Take `O=C(Nc1nc2ccccc2s1)C1CCN(S(=O)(=O)c2ccc(F)c(Cl)c2)CC1` [VU233]: the “inhibition of FAAH activity” value is given as “only weak inhibition”.

The subject of a further data set is RAW264.7 mouse macrophages. Nature of the data set: Cytotoxicity (MTT) in RAW264.7 macrophages. The class given is cell-based. To be noted: Table 3; 33 μM. As for the experimental part:
Cytotoxicity was measured using MTT as previously described except that the studies used 96-well plates with 100 μL of 0.3 mg/mL MTT solution was added after 24 h of treatment and then replaced after 3 h with 0.1 M HCl in isopropanol. See Aggarwal et al., J. Biol. Chem. 295(21): 7289-7300 (2020). Viability was expressed as percent absorbance at 560 nm relative to vehicle controls.
With `O=C(Nc1nc2ccccc2s1)C1CCN(S(=O)(=O)c2cccnc2)CC1` [VU203], the “% viability RAW 264.7 (33 μM)” value amounted to 57%.
The same measure, in the same setting: the figure for `Cc1cccc2sc(NC(=O)C3CCN(S(=O)(=O)c4ccc(F)c(Cl)c4)CC3)nc12` [VU209] is 88%; for `Cc1cccc2sc(NC(=O)C3CCN(S(=O)(=O)c4cnn(C)c4)CC3)nc12` [VU210] it is 86%; for `Cc1cccc2sc(NC(=O)C3CCN(S(=O)(=O)c4cccnc4)CC3)nc12` [VU211] it is 88%.
The same measure, in the same setting: the figure for `Cn1cc(S(=O)(=O)N2CCC(C(=O)Nc3nc4ccccc4s3)CC2)cn1` [VU227] is 106%; for `O=C(Nc1nc2ccccc2s1)C1CCN(S(=O)(=O)c2ccc(F)c(Cl)c2)CC1` [VU233] it is 111%.

Staying with this data set, now noted: up to / at 30 μM.
For the compound `O=C(Nc1nc2ccccc2s1)C1CCN(S(=O)(=O)c2ccc(F)c(Cl)c2)CC1` [VU233], the “cytotoxicity in RAW264.7 cells” value is “no cytotoxicity”.
